In paper PMC11783063, “Design, synthesis, and apoptotic antiproliferative action of new benzimidazole/1,2,3-triazole hybrids as EGFR inhibitors” (Frontiers in Chemistry, 2025):

How the values were obtained:
Assay type in all cases: cell-based, human
[1] = test system: MCF-7 (breast cancer cell line); assay: Antiproliferative assay, MCF-7; settings: Homo sapiens, MCF7; read-out: Antiproliferative activity IC50 ± SEM, MCF-7
Excerpt: (§1) Refer to Supplementary Appendix A for more information.
(§2) DMSO (0.1%) was used as control.

[2] = test system: HT-29 (colon cancer cell line); assay: Antiproliferative assay, HT-29; settings: Homo sapiens, read-out: Antiproliferative activity IC50 ± SEM, HT-29
Excerpt: as §1, §2

caspase-3 = assay: Caspase-3 activation assay in MCF-7 cells; settings: for Caspase-3 Conc: compound at its IC50 concentration; for Caspase-3 Fold change: vs untreated control
Excerpt: (§3) Cells experience apoptosis in reaction to specific signaling cues, resulting in significant modifications. […] They decompose vital cellular components, including nuclear proteins, such as DNA repair enzymes and structural proteins within the cytoskeleton, essential for optimal cellular function.
(§4) Supplementary Appendix A provides more details.
Allow all reagents to reach room temperature before use. Gently mix all liquid reagents prior to use. Determine the number of 8-well strips needed for the assay. Insert these in the frame(s) for current use. Add 100 μl of the Standard Diluent Buffer to the zero standard wells. Well(s) reserved for chromogen blank should be left empty. Add 100 μl of standards and controls or diluted samples to the appropriate microtiter wells. The sample dilution chosen should be optimized for each experimental system. Tap gently on the side of plate to mix. Cover wells with plate cover and incubate for 2 hours at room temperature. Thoroughly aspirate or decant solution from wells and discard the liquid, Wash wells 4 times. […] Tap gently on the side of the plate to mix. Cover plate with plate cover and incubate for 1 hour at room temperature. Thoroughly aspirate or decant solution from wells and discard the liquid, Wash wells 4 times. Add 100 μl Anti-Rabbit IgG HRP Working Solution to each well except the chromogen blank(s). Prepare the working dilution as described in Preparing IgG HRP. Cover wells with the plate cover and incubate for 30 minutes at room temperature. Thoroughly aspirate or decant solution from wells and discard the liquid. Wash wells 4 times. Add 100 μl of Stabilized Chromogen to each well. The liquid in the wells will begin to turn blue. Incubate for 30 minutes at room temperature and in the dark. The incubation time for chromogen substrate is often determined by the microtiter plate reader used. […] The O.D. values should be monitored, and the substrate reaction stopped before the O.D. of the positive wells exceeds the limits of the instrument. The O.D. values at 450 nm can only be read after the Stop Solution has been added to each well. […] Add 100 μl of Stop Solution to each well. Tap side of plate gently to mix. The solution in the wells should change from blue to yellow. Read the absorbance of each well at 450 nm having blanked the plate reader against a chromogen blank composed of 100 μl each of Stabilized Chromogen and Stop Solution. Read the plate within 2 hours after adding the Stop Solution. Use a curve fitting software to generate the standard curve. […] Read the concentrations for unknown samples and controls from the standard curve. Multiply value(s) obtained for sample(s) by the appropriate dilution factor to correct for the dilution in step 3.

caspase-8 = assay: Caspase-8 activation assay in MCF-7 cells; settings: for Caspase-8 Conc: compound at its IC50 concentration; for Caspase-8 Fold change: vs untreated control
Experimental: as §3, §4
The absorbance of each microwell was read on a spectrophotometer at 450 nm. A standard curve is prepared from 7human Caspase-8 standard dilutions and human Caspase-8 concentration determined.

Bcl-2 = Bcl-2 inhibition assay in MCF-7 cells; settings: for Bcl-2 Conc: compound at its IC50
Experimental: The current study supplied compounds 6i and 10e to breast (MCF-7) cancer cell lines at their respective IC50 values. This led to a notable elevation of pro-apoptotic Bax expression, with a fold increase of 34 for compound 6i and 36 for compound 10e.
Compounds 6i and 10e were assessed for their ability to activate caspase-3, caspase-8, and Bax, as well as to downregulate the anti-apoptotic protein Bcl2 in the MCF-7 breast cancer cell line ([Abdelbaset et al., 2019]). Supplementary Appendix A provides more details.
Mix all the reagents thoroughly without foaming before use. Wash the microwells twice with approximately 300 μL Wash Buffer per well with thorough aspiration of microwell contents between washes. Take caution not to scratch the surface of the microwells. After the last wash, empty the wells and tap microwell strips on an absorbent pad or paper towel to remove excess Wash Buffer. Use the microwell strips immediately after washing or place upside down on a wet absorbent paper for not longer than 15 minutes. […] Add 100 μL of Sample Diluent in duplicate to all standard wells and to the blank wells. Prepare standard (1:2 dilution) in duplicate ranging from 32 ng/mL to 0.5 ng/mL. Add 100 μL of Sample Diluent, in duplicate, to the blank wells. Add 80 μL of Sample Diluent, in duplicate, to the sample wells. Add 20 μL of each Sample, in duplicate, to the designated wells. Add 50 μL of diluted biotin-conjugate to all wells, including the blank wells. Cover with a plate cover and incubate at room temperature, on a microplate shaker at 100 rpm if available, for 2 hours. Remove plate cover and empty the wells. Wash microwell strips 3 times as described in step 2. Add 100 μL of diluted Streptavidin-HRP to all wells, including the blank wells. Cover with a plate cover and incubate at room temperature, on a microplate shaker at 100 rpm if available, for 1 hour. Remove the plate cover and empty the wells. Wash microwell strips 3 times as described in step 2. Proceed to the next step. Pipette 100 μl of mixed TMB Substrate Solution to all wells, including the blanks. Incubate the microwell strips at room temperature (18° to 25°C) for about 15 minutes, if available on a rotator set at 100 rpm. Avoid direct exposure to intense light. The point, at which the substrate reaction is stopped, is often determined by the ELISA reader. Many ELISA readers record absorbance only up to 2.0 O.D. Therefore, the color development within individual microwells must be watched by the person running the assay and the substrate reaction stopped before positive wells are no longer properly detectable. Stop the enzyme reaction by quickly pipetting 100 μL of Stop Solution into each well, including the blank wells. It is important that the Stop Solution is spread quickly and uniformly throughout the microwells to completely inactivate the enzyme. Results must be read immediately after the Stop Solution is added or within one hour if the microwell strips are stored at 2 - 8°C in the dark. Read the absorbance of each microwell on a spectrophotometer using 450 nm as the primary wavelength.

SMILES	IC50 [1]	IC50 [2]	Caspase-3 Conc (caspase-3)	Caspase-3 Fold change (caspase-3)	Caspase-8 Conc (caspase-8)	Caspase-8 Fold change (caspase-8)	Bcl-2 Conc (Bcl-2)	Bcl-2 Fold reduction (Bcl-2; vs untreated control)
O=[N+]([O-])c1cccc(-n2cc(Cn3c(SCc4ccccc4)nc4ccccc43)nn2)c1 [10e]	24 ± 2 nM	25 ± 2 nM	778 ± 6 pg/mL	12	1.75 ± 0.15 ng/mL	19	0.70 ng/mL	~7
NS(=O)(=O)c1ccc(-n2cc(CSc3nc4ccccc4[nH]3)nn2)cc1 [6i, 4-(4-(((1H-benzimidazol-2-yl)thio)methyl)-1H-1,2,3-triazol-1-yl)benzene-sulfonamide]	28 ± 2 nM	30 ± 2 nM	590 ± 5 pg/mL	9	1.60 ± 0.20 ng/mL	18	0.85 ng/mL	–
